Data: ChEMBL document CHEMBL4130376, “Discovery of methylsulfonyl indazoles as potent and orally active respiratory syncytial Virus(RSV) fusion inhibitors” (Eur J Med Chem, 2017)

How the values were obtained:
[1] = Metabolic stability in human liver microsomes by high-throughput screening based assay; type: ADME, microsome; conditions: read-out: Stability
[2] = Plasma clearance in rat at 2 mg/kg, iv; type: ADME, organism-based
[3] = AUC (0 to 24 hrs) in rat at 10 mg/kg, po; type: ADME, organism-based; set-up: time < 24 hr, dose 10 mg/kg, route oral; conditions: in vivo
[4] = Half life in rat at 10 mg/kg, po; type: ADME, organism-based; conditions: in vivo
[5] = Metabolic stability in mouse liver microsomes by high-throughput screening based assay; type: ADME, microsome; conditions: read-out: Stability
[6] = Half life in rat at 2 mg/kg, iv; type: ADME, organism-based; conditions: in vivo
[7] = Oral bioavailability in rat at 10 mg/kg; type: ADME, organism-based; conditions: in vivo
[8] = Cmax in rat at 10 mg/kg, po; type: ADME, organism-based; set-up: dose 10 mg/kg, route oral; conditions: in vivo
[9] = Volume of distribution at steady state in rat at 2 mg/kg, iv; type: ADME, organism-based; conditions: in vivo, read-out: Vdss
[10] = Cmax in rat at 2 mg/kg, iv; type: ADME, organism-based; set-up: dose 2 mg/kg, route intravenous; conditions: in vivo
[11] = AUC (0 to 24 hrs) in rat at 2 mg/kg, iv; type: ADME, organism-based; set-up: dose 2 mg/kg, time < 24 hr, route intravenous; conditions: in vivo
[12] = Tmax in rat at 10 mg/kg, po; type: ADME, organism-based; conditions: in vivo
[13] = Effective permeability of the compound by PAMPA; type: ADME; conditions: read-out: Peff
[14] = Half life in rat at 1 mg/kg, iv; type: ADME, organism-based; conditions: in vivo
[15] = Cmax in rat at 1 mg/kg, iv; type: ADME, organism-based; set-up: dose 1 mg/kg, route intravenous; conditions: in vivo
[16] = AUC (0 to 24 hrs) in rat at 5 mg/kg, po; type: ADME, organism-based; set-up: dose 5 mg/kg, time < 24 hr, route oral; conditions: in vivo
[17] = Oral bioavailability in rat at 5 mg/kg; type: ADME, organism-based; conditions: in vivo
Rattus norvegicus = test: AUC (0 to 24 hrs) in rat at 1 mg/kg, iv; type: ADME, organism-based; set-up: dose 1 mg/kg, time < 24 hr, route intravenous; conditions: in vivo
[18] = Tmax in rat at 5 mg/kg, po; type: ADME, organism-based; conditions: in vivo
[19] = Metabolic stability in rat liver microsomes by high-throughput screening based assay; type: ADME, microsome; conditions: read-out: Stability
[20] = Cmax in rat at 5 mg/kg, po; type: ADME, organism-based; set-up: dose 5 mg/kg, route oral; conditions: in vivo
[21] = Volume of distribution at steady state in rat at 1 mg/kg, iv; type: ADME, organism-based; conditions: in vivo, read-out: Vdss
[22] = Volume of distribution at steady state in ICR mouse at 2 mg/kg, iv; type: ADME, organism-based; conditions: in vivo, read-out: Vdss
[23] = Half life in ICR mouse at 2 mg/kg, iv; type: ADME, organism-based; conditions: in vivo
[24] = Tmax in ICR mouse at 25 mg/kg, po; type: ADME, organism-based; conditions: in vivo
[25] = Cmax in ICR mouse at 25 mg/kg, po; type: ADME, organism-based; set-up: dose 25 mg/kg, route oral; conditions: in vivo
Mus musculus [26] = test: Oral bioavailability in ICR mouse at 25 mg/kg; type: ADME, organism-based; conditions: in vivo
[27] = Cmax in ICR mouse at 2 mg/kg, iv; type: ADME, organism-based; set-up: dose 2 mg/kg, route intravenous; conditions: in vivo
Mus musculus [28] = test: AUC (0 to 24 hrs) in ICR mouse at 25 mg/kg, po; type: ADME, organism-based; set-up: dose 25 mg/kg, time < 24 hr, route oral; conditions: in vivo
Mus musculus [29] = test: (§1) AUC (0 to 24 hrs) in ICR mouse at 2 mg/kg, iv; type: ADME, organism-based; set-up: time < 24 hr, dose 2 mg/kg, route intravenous; conditions: in vivo, 24 h
[30] = Half life in ICR mouse at 25 mg/kg, po; type: ADME, organism-based; conditions: in vivo
[31] = Plasma clearance in ICR mouse at 2 mg/kg, iv; type: ADME, organism-based
[32] = Oral bioavailability in ICR mouse at 12.5 mg/kg; type: ADME, organism-based; conditions: in vivo
[33] = AUC (0 to 24 hrs) in ICR mouse at 12.5 mg/kg, po; type: ADME, organism-based; set-up: time < 24 hr, dose 12.5 mg/kg, route oral; conditions: in vivo
[34] = Tmax in ICR mouse at 12.5 mg/kg, po; type: ADME, organism-based; conditions: in vivo
[35] = as §1; type: ADME, organism-based; set-up: time < 24 hr, dose 2 mg/kg, route intravenous; conditions: ICR, in vivo
[36] = Cmax in ICR mouse at 12.5 mg/kg, po; type: ADME, organism-based; set-up: dose 12.5 mg/kg, route oral; conditions: in vivo
[37] = Half life in ICR mouse at 12.5 mg/kg, po; type: ADME, organism-based; conditions: in vivo
[38] = Tmax in ICR mouse at […], po; type: ADME, organism-based; conditions: in vivo
Mus musculus [39] = test: Oral bioavailability in ICR mouse at […]; type: ADME, organism-based; conditions: in vivo
[40] = Half life in ICR mouse at […], po; type: ADME, organism-based; conditions: in vivo
Mus musculus [41] = test: AUC (0 to 24 hrs) in ICR mouse at […], po; type: ADME, organism-based; set-up: time < 24 hr, dose 8.3 mg/kg, route oral; conditions: in vivo
[42] = Cmax in ICR mouse at […], po; type: ADME, organism-based; set-up: dose 8.3 mg/kg, route oral; conditions: in vivo

## CS(=O)(=O)CCCn1c(Cn2nc(S(C)(=O)=O)c3ccccc32)nc2cc(Cl)ccc21
[1]
  CLhep predicted: 3.42 mL/min/kg
[2]
  clearance: 17.4 mL/min/kg
[3]
  AUC(0-t) at 24 h: 204 ng·h/mL
[4]
  half-life: 3.66 h
[5]
  CLhep predicted: 14.9 mL/min/kg
[6]
  half-life: 3.91 h
[7]
  bioavailability: 1.7%
[8]
  Cmax: 22.2 ng/mL
[9]
  Vd: 2.5 L/kg
[10]
  Cmax: 1160 ng/mL
[11]
  AUC(0-t) at 24 h: 2470 ng·h/mL
[12]
  Tmax: 2.67 h
[13]
  Papp: 2.78 ×10⁻⁶ cm/s

## CS(=O)(=O)CCCn1c(Cn2cc(S(C)(=O)=O)c3ccccc32)nc2cc(Cl)ccc21
[1]
  CLhep predicted: 0.66 mL/min/kg
[14]
  half-life: 0.674 h
[15]
  Cmax: 371 ng/mL
[5]
  CLhep predicted: 34 mL/min/kg
[16]
  AUC(0-t) at 24 h: 21.4 ng·h/mL
[17]
  bioavailability: 1.46%
Rattus norvegicus
  AUC: 294 ng·h/mL
[18]
  Tmax: 4.67 h
[19]
  CLhep predicted: 1.33 mL/min/kg
[20]
  Cmax: 4.05 ng/mL
[13]
  Papp: 1.55 to 2.36 ×10⁻⁶ cm/s
[21]
  Vd: 2.71 L/kg

## CS(=O)(=O)c1nn(Cc2nc3cc(Cl)ccc3n2CCCCO)c2cnccc12
[22]
  Vd: 1.08 L/kg
[1]
  CLhep predicted: 2.58 mL/min/kg
[23]
  half-life: 0.297 h
[24]
  Tmax: 0.25 h
[5]
  CLhep predicted: 25.5 mL/min/kg
[25]
  Cmax: 425 ng/mL
Mus musculus [26]
  F: 19%
[27]
  Cmax: 1420 ng/mL
Mus musculus [28]
  AUC: 580 ng·h/mL
Mus musculus [29]
  AUC: 1380 ng·h/mL
[19]
  CLhep predicted: 20.7 mL/min/kg
[13]
  Papp: 2.42 ×10⁻⁶ cm/s
[30]
  half-life: 1.81 h

## CS(=O)(=O)c1nn(Cc2nc3cc(Cl)ccc3n2CCCO)c2cnccc12
[22]
  Vd: 8.3 L/kg
[1]
  CLhep predicted: 2.96 mL/min/kg
[23]
  half-life: 4.05 h
[31]
  clearance: 37.4 mL/min/kg
[32]
  bioavailability: 17.1%
[5]
  CLhep predicted: 15.3 mL/min/kg
[33]
  AUC(0-t) at 24 h: 891 ng·h/mL
[27]
  Cmax: 1730 ng/mL
[34]
  Tmax: 0.5 h
[35]
  AUC(0-t) at 24 h: 954 ng·h/mL
[36]
  Cmax: 155 ng/mL
[19]
  CLhep predicted: 14.9 mL/min/kg
[37]
  half-life: 6.6 h
[13]
  Papp: 3.47 ×10⁻⁶ cm/s

## CS(=O)(=O)CCn1c(Cc2cn(S(C)(=O)=O)c3ccccc23)nc2ccccc21
[1]
  CLhep predicted: 16.5 mL/min/kg
[5]
  CLhep predicted: 73.2 mL/min/kg

## CS(=O)(=O)CCc1c(CN2C(=O)C3(CC3)c3ccncc32)nc2cc(Cl)ccn12
[1]
  CLhep predicted: 2.6 mL/min/kg
[5]
  CLhep predicted: 63.5 mL/min/kg

## CS(=O)(=O)c1nn(Cc2nc3cc(Cl)ccc3n2CCC(F)(F)F)c2cnccc12
[22]
  Vd: 1.04 L/kg
[1]
  CLhep predicted: 1.09 mL/min/kg
[23]
  half-life: 1.03 h
[31]
  clearance: 12.2 mL/min/kg
[5]
  CLhep predicted: 18 mL/min/kg
[38]
  Tmax: 1 h
[27]
  Cmax: 1940 ng/mL
Mus musculus [39]
  F: 42.8%
Mus musculus [29]
  AUC: 4830 ng·h/mL
[40]
  half-life: 3.16 h
Mus musculus [41]
  AUC: 2730 ng·h/mL
[42]
  Cmax: 589 ng/mL
[19]
  CLhep predicted: 0.28 mL/min/kg
[13]
  Papp: 2.81 ×10⁻⁶ cm/s

## CS(=O)(=O)CCn1c(Cn2cc(S(C)(=O)=O)c3ccccc32)nc2cc(Cl)ccc21
[13]
  Papp: 2.3 ×10⁻⁶ cm/s

## CS(=O)(=O)c1nn(Cc2nc3cc(Cl)ccc3n2CCC(O)C(F)(F)F)c2cnccc12 (stereo not given)
[1]
  CLhep predicted: 4.51 mL/min/kg
[5]
  CLhep predicted: 26.5 mL/min/kg
[19]
  CLhep predicted: 18 mL/min/kg
[13]
  Papp: 4.29 ×10⁻⁶ cm/s
